PubChem BioAssay AID248 (DTP/NCI, 2004)
Several values for one entry are separate records, joined by “and”; a condition that tells them apart may be missing. Equal values may be shown once. Toxic doses and inconclusive results are not listed. Cut-off read from the data, not from the text of the source: active = T/C of 150% or more; inactive = T/C below 125%. Peptide text beside a SMILES is read from it. * marks the point of attachment. Cbz = O=C(OCc1ccccc1)*

System: L1210 leukemia ip in BDF1 mice, survival T/C
Assay: NCI In Vivo Anticancer Drug Screen. Data for tumor model L1210 Leukemia (intraperitoneal) in B6D2F1 (BDF1) mice
Conditions: endpoint: mean survival time, higher = longer survival
In short: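 Read-out is survival time, reported as the treated-group measurement over the vehicle-control measurement.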

[1] = dose: 100.0 mg/kg/injection, schedule: Q01DX001 (ip), vehicle: saline
[2] = dose: 200.0 mg/kg/injection, schedule: Q01DX001 (ip), vehicle: saline
[3] = dose: 400.0 mg/kg/injection, schedule: Q01DX001 (ip), vehicle: saline
[4] = dose: 100.0 mg/kg/injection, schedule: Q01DX009 (ip), vehicle: saline
[5] = dose: 200.0 mg/kg/injection, schedule: Q01DX009 (ip), vehicle: saline
[6] = dose: 400.0 mg/kg/injection, schedule: Q01DX009 (ip), vehicle: saline
[7] = dose: 150.0 mg/kg/injection, schedule: Q01DX001 (ip), vehicle: saline
[8] = dose: 100.0 mg/kg/injection, schedule: Q04DX003 (ip), vehicle: Klucel (hydroxypropylcellulose) (HPC)
[9] = dose: 200.0 mg/kg/injection, schedule: Q04DX003 (ip), vehicle: Klucel (hydroxypropylcellulose) (HPC)
[10] = dose: 400.0 mg/kg/injection, schedule: Q04DX003 (ip), vehicle: Klucel (hydroxypropylcellulose) (HPC)
[11] = dose: 100.0 mg/kg/injection, schedule: Q04DX003 (ip), vehicle: saline
[12] = dose: 200.0 mg/kg/injection, schedule: Q04DX003 (ip), vehicle: saline
[13] = dose: 400.0 mg/kg/injection, schedule: Q04DX003 (ip), vehicle: saline

Measured: T/C

O=C(ON=C1C=CC(=NOC(=O)c2ccccc2)C=C1)c1ccccc1
inactive: [1] 97 % of control | [2] 102 % of control | [3] 91 % of control

C/C=C(\Br)C(=O)N1CCCCC1
inactive: [1] 94 % of control | [2] 100 % of control | [3] 95 % of control

CC12CC(O)C3C(CCC4CC(O)CCC43C)C1CCC2C(=O)CO (stereo unspecified)
inactive: dose: 100.0 mg/kg/injection, schedule: Q01DX001 (sc), vehicle: steriod suspending solution 102 % of control | dose: 200.0 mg/kg/injection, schedule: Q01DX001 (sc), vehicle: steriod suspending solution 104 % of control | dose: 400.0 mg/kg/injection, schedule: Q01DX001 (sc), vehicle: steriod suspending solution 102 % of control

COc1c(C)ccc([N+](=O)[O-])c1OC
inactive: dose: 100.0 mg/kg/injection, schedule: Q04DX003 (ip), vehicle: saline with Tween-80 94 % of control | dose: 200.0 mg/kg/injection, schedule: Q04DX003 (ip), vehicle: saline with Tween-80 97 % of control | dose: 400.0 mg/kg/injection, schedule: Q04DX003 (ip), vehicle: saline with Tween-80 97 % of control

NC(CCl)=NCc1cccnc1
inactive: dose: 12.5 mg/kg/injection, schedule: Q04DX002 (ip), vehicle: saline 97 % of control | dose: 25.0 mg/kg/injection, schedule: Q04DX002 (ip), vehicle: saline 108 % of control

CCOC(=O)CP(=O)(OC)c1ccccc1 (stereo unspecified)
inactive: [4] 97 % of control | [5] 120 % of control | [6] 101 % of control

CCN(CC)CCCC(C)Nc1cc(/C=C/c2ccc(Cl)cc2)nc2ccc(N(C)C)cc12 (stereo unspecified)
inactive: dose: 3.12 mg/kg/injection, schedule: Q01DX009 (ip), vehicle: saline with Tween-80 95 % of control | dose: 6.25 mg/kg/injection, schedule: Q01DX009 (ip), vehicle: saline with Tween-80 97 % of control | dose: 12.5 mg/kg/injection, schedule: Q01DX009 (ip), vehicle: saline with Tween-80 95 % of control and 98 % of control

OCCS
inactive: dose: 25.0 mg/kg/injection, schedule: Q01DX001 (ip), vehicle: saline 105 % of control | dose: 44.0 mg/kg/injection, schedule: Q01DX001 (ip), vehicle: saline 95 % of control | dose: 50.0 mg/kg/injection, schedule: Q01DX001 (ip), vehicle: saline 97 % of control | dose: 66.0 mg/kg/injection, schedule: Q01DX001 (ip), vehicle: saline 105 % of control | [1] 100 % of control and 103 % of control | [7] 103 % of control | [2] 102 % of control and 105 % of control

CN(C)CCC(CNC1=NCCN1)c1cccc2ccccc12 (stereo unspecified)
inactive: dose: 25.0 mg/kg/injection, schedule: Q04DX002 (ip), vehicle: saline with Tween-80 108 % of control | dose: 50.0 mg/kg/injection, schedule: Q04DX002 (ip), vehicle: saline with Tween-80 101 % of control | dose: 100.0 mg/kg/injection, schedule: Q04DX002 (ip), vehicle: saline with Tween-80 101 % of control

NNS(=O)(=O)Cc1ccccc1
inactive: [1] 100 % of control | [2] 95 % of control

NC(=O)Cc1ccc2c(c1)[nH]c1ccccc12
inactive: dose: 100.0 mg/kg/injection, schedule: Q01DX001 (ip), vehicle: Klucel (hydroxypropylcellulose) (HPC) 96 % of control | [8] 102 % of control | dose: 200.0 mg/kg/injection, schedule: Q01DX001 (ip), vehicle: Klucel (hydroxypropylcellulose) (HPC) 94 % of control | [9] 105 % of control | dose: 400.0 mg/kg/injection, schedule: Q01DX001 (ip), vehicle: Klucel (hydroxypropylcellulose) (HPC) 100 % of control | [10] 103 % of control

CCN(CC)CCOCCN(CC)CC
inactive: dose: 75.0 mg/kg/injection, schedule: Q01DX001 (ip), vehicle: saline 98 % of control | [7] 102 % of control

COC(=O)CNC(=O)CNC(=O)OCc1ccccc1 (Cbz-Gly-Gly-OMe)
inactive: [4] 102 % of control | [11] 102 % of control | [5] 100 % of control | [12] 98 % of control | [6] 102 % of control | [13] 107 % of control

CSc1ncc(CO)c(NC(C)(C)C)n1
inactive: [11] 96 % of control | [12] 100 % of control | [13] 100 % of control

CC1(C)Cc2ccccc2C(c2nccc3ccccc23)=N1
inactive: [8] 106 % of control | [9] 118 % of control | [10] 102 % of control

c1ccc(-c2nc3cnccc3o2)cc1
inactive: dose: 12.5 mg/kg/injection, schedule: Q01DX009 (ip), vehicle: Klucel (hydroxypropylcellulose) (HPC) 92 % of control | dose: 25.0 mg/kg/injection, schedule: Q01DX009 (ip), vehicle: Klucel (hydroxypropylcellulose) (HPC) 94 % of control | dose: 50.0 mg/kg/injection, schedule: Q01DX009 (ip), vehicle: Klucel (hydroxypropylcellulose) (HPC) 94 % of control | [8] 106 % of control | [9] 99 % of control | [10] 94 % of control

COC(=O)c1nc2ccc([N+](=O)[O-])cc2n1O
inactive: [1] 101 % of control | [2] 93 % of control | [3] 96 % of control
